The record followed here is patent US20260098283A1, “In Vitro Bioproduction of Specific Chain Legnth Poly(hydroxyalkanoate) Monomers” (Kimberly-Clark Worldwide, Inc., priority 2022, published 2026).

Each structure is given as a SMILES string.

For assay [1], the system named is fatty acid-CoA ligase QKS25406. Description: substrate chain length preference of fatty acid-CoA ligase QKS25406. The class given is biochemical, Halomonas titanicae. Conditions: for suitability of the enzyme for the fatty acid (optimal / possible / not possible): result in words; for percent activity: substrate chain length preference distribution, percent activity vs. carbon length, enzyme QKS25406. From the text:
(§1) • Sources: Enzyme sequences were identified by searching the NCBI Protein or Identical Protein Group databases. For this example, it was decided to focus primarily on the thermohalophile Thermobifida halotolerans. Sequences and accession numbers for the enzymes used in this work are listed in Appendix I. All general laboratory chemicals and long chain fatty acids were purchased from Millipore-Sigma Chemical Company (St. Louis, MO). Cloning materials and protein purification supplies were from New England Biolabs (Beverly, MA). • Enzyme cloning: The amino acid sequence for each enzyme was searched for potential signal sequences. If one was present it was removed from the sequence. A histine tag and a TEV protease cleavage sequence were added to the N-ter of each enzyme. This sequence was MHHHHHHENLYFQS to assist in purification (via an NTA-Ni column) and subsequent removal of the hexahistidine tag. Each recombinant enzyme began with an N-ter serine residue as TEV protease cleaves after the glutamine (Q). Each amino acid sequence was back translated to an E. coli codon optimized nucleic acid sequence and was synthesized using standard laboratory gene synthesis techniques. The insert was digested with Nde I and cloned into the similarly digested expression vector pET11d. Final DNA sequences were verified by DNA sequencing. Expression plasmids were used to transform E. coli Origami2 (DE3) for expression. • Protein expression and purification: A single colony was used to inoculate 5.0 mL of LBamp media (80 mg/ml ampicillin concentration). Bacteria were grown for 12 hours at 37° C. and this culture was used to inoculate 500 mL of LBamp media. This culture was grown at 37° C. until the optical density (600 nm) reached 0.4 (typically in 3-5 hours). Protein expression was induced by the addition of IPTG to a final concentration of 1 mM. Cells were grown for 12 hours at 37° C. Cells were harvested by centrifugation at 5,000×g for 20 minutes, and frozen at −80° C. until use (minimal time frozen was 24 hours). Cells were thawed on ice and were resuspended in Buffer A (0.5 M NaCl, 20 mM Tris-HCl, 5 mM imidazole, pH 7.9) (typically 1 mL per gram of cells). Cells were disrupted via two passes through a French Press followed by centrifugation at 30,000×g for 30 minutes. The crude extract was mixed with an equal volume of charged His-Bind resin slurry and the mixture was poured into 5 cm×4.9 cc column. The column was washed with 10 column volumes of wash buffer (0.5 M NaCl, 20 mM Tris-HCl, 60 mM imidazole, pH 7.9) at a flow rate of 0.2 mL/min. Enzyme was eluted from the column with the addition of 3 column volumes of 0.5 M NaCl, 20 mM Tris-HCl, 1.0 M imidazole, pH 7.9. Fractions were collected (1.0 mL). Fractions containing enzyme were pooled after analysis by SDS PAGE. The pooled fractions were applied to a 70 cmp×4.9 cc Sephadex G-75 column (10 mM Tris-HCl, PH 7.5, 1 mM EDTA). Fractions containing homogeneous protein were pooled (after inspection by SDS PAGE) and concentrated to 5 mg/ml via Centricon filters. Enzyme was stored frozen at −20° C. until use. The TRX-histidine tag region was removed from the enzymes using TEV protease. Protein was diluted to 1.0 mg/ml into 10 mM Tris-HCl, pH 7.5, 25 mM NaCl. 100 U of TEV protease was added per mg of enzyme (approximate ratio of 1:100 (w/w). The reaction was allowed to proceed for 16 h at 4° C. The mixture was passed over a charged nickel column. One column volume of eluent was collected representing purified tag-free enzyme. • Enzyme assays: The formation of long-chain fatty acid-CoA was monitored by measuring the amount of pyrophosphate released from the reaction using the MAK 168 pyrophosphate assay kit from Millipore-Sigma Chemical Co (St. Louis, MO). The formation of PHA was monitored by the increase in optical density (650 nm) as a function of time in a Molecular Devices SpectraMax 5 spectrometer. The assay measures the increase in light scattering due to precipitating PHA formed during the reaction. […]

Assay [2] deals with fatty acid-CoA ligase QKS24113. The assay can be described thus: substrate chain length preference of fatty acid-CoA ligase QKS24113. The class given is biochemical, Halomonas titanicae. The note with it: for suitability of the enzyme for the fatty acid (optimal / possible / not possible): result in words; for percent activity: substrate chain length preference distribution, percent activity vs. carbon length, enzyme QKS24113.
Text: as §1

The test system of assay [3] is fatty acid-CoA ligase QKS24074. The assay can be described thus: substrate chain length preference of fatty acid-CoA ligase QKS24074. The class given is biochemical, Halomonas titanicae. Conditions: for suitability of the enzyme for the fatty acid (optimal / possible / not possible): result in words; for percent activity: substrate chain length preference distribution, percent activity vs. carbon length, enzyme QKS24074.
Text: as §1

For assay [4], the system named is fatty acid-CoA ligase QKS26753. Description: substrate chain length preference of fatty acid-CoA ligase QKS26753. The note with it: for suitability of the enzyme for the fatty acid (optimal / possible / not possible): result in words; for percent activity: substrate chain length preference distribution, percent activity vs. carbon length, enzyme QKS26753. It counts as biochemical, Halomonas titanicae.
Text: as §1

In assay [5] the test system is fatty acid-CoA ligase QKS23364. The assay can be described thus: substrate chain length preference of fatty acid-CoA ligase QKS23364. The class given is biochemical, Halomonas titanicae. Conditions: for suitability of the enzyme for the fatty acid (optimal / possible / not possible): result in words; for percent activity: substrate chain length preference distribution, percent activity vs. carbon length, enzyme QKS23364.
Text: as §1

The test system of assay [6] is fatty acid-CoA ligase. The assay can be described thus: long-chain fatty acid CoA ligase reaction time course, Example 5. The note with it: Example 5, FIG. 20/21; 1.0 M NaCl, pH 7.5. It counts as biochemical, Halomonas titanicae. From the text: (§2) • Sources: Enzyme sequences were identified by searching the NCBI Protein or Identical Protein Group databases. For this example, it was decided to focus primarily on the thermohalophile Thermobifida halotolerans. Sequences and accession numbers for the enzymes used in this work are listed in Appendix I. All general laboratory chemicals and long chain fatty acids were purchased from Millipore-Sigma Chemical Company (St. Louis, MO). Cloning materials and protein purification supplies were from New England Biolabs (Beverly, MA). • Enzyme cloning: The amino acid sequence for each enzyme was searched for potential signal sequences. If one was present it was removed from the sequence. A histine tag and a TEV protease cleavage sequence were added to the N-ter of each enzyme. This sequence was MHHHHHHENLYFQS to assist in purification (via an NTA-Ni column) and subsequent removal of the hexahistidine tag. Each recombinant enzyme began with an N-ter serine residue as TEV protease cleaves after the glutamine (Q). Each amino acid sequence was back translated to an E. coli codon optimized nucleic acid sequence and was synthesized using standard laboratory gene synthesis techniques. The insert was digested with Nde I and cloned into the similarly digested expression vector pET11d. Final DNA sequences were verified by DNA sequencing. […] 100 U of TEV protease was added per mg of enzyme (approximate ratio of 1:100 (w/w). The reaction was allowed to proceed for 16 h at 4° C. The mixture was passed over a charged nickel column. One column volume of eluent was collected representing purified tag-free enzyme. • Enzyme assays: The formation of long-chain fatty acid-CoA was monitored by measuring the amount of pyrophosphate released from the reaction using the MAK 168 pyrophosphate assay kit from Millipore-Sigma Chemical Co (St. Louis, MO). The formation of PHA was monitored by the increase in optical density (650 nm) as a function of time in a Molecular Devices SpectraMax 5 spectrometer. […]

Assay [7] relates to five-step reaction from long-chain fatty acid CoA to PHA. Description: formation of precipitating PHA, optical density 650 nm, Example 5. The class given is biochemical, Halomonas titanicae. Conditions: Example 5, FIG. 22; fatty acid as starting material.
Text: as §2

Assay [8] relates to long-chain fatty acid CoA ligase. The assay can be described thus: long-chain fatty acid CoA ligase reaction time course, Example 1 (fatty acid loss, pyrophosphate formation). It counts as biochemical, Thermobifida halotolerans. Conditions: Example 1, FIG. 6/7; single fatty acid substrate.
Text: as §2, with “sequence.” for “sequence. A histine tag and a TEV protease cleavage sequence were added to the N-ter of each enzyme. This sequence was MHHHHHHENLYFQS to assist in purification (via an NTA-Ni column) and subsequent removal of the hexahistidine tag. Each recombinant enzyme began with an N-ter serine residue as TEV protease cleaves after the glutamine (Q). Each amino acid sequence was back translated to an E. coli codon optimized nucleic acid sequence and was synthesized using standard laboratory gene synthesis techniques. The insert was digested with Nde I and cloned into the similarly digested expression vector pET11d. Final DNA sequences were verified by DNA sequencing.”

The test system of assay [9] is overall 5-step reaction from long-chain fatty acid CoA to PHA. The assay can be described thus: formation of precipitating PHA, optical density 650 nm, Example 1. The class given is biochemical, Thermobifida halotolerans. The note with it: Example 1, FIG. 8; fatty acid as starting material.
Text: as §2, with “sequencing. Expression plasmids were used to transform E. coli Origami2 (DE3) for expression. • Protein expression and purification: A single colony was used to inoculate 5.0 mL of LBamp media (80 mg/ml ampicillin concentration). Bacteria were grown for 12 hours at 37° C. and this culture was used to inoculate 500 mL of LBamp media. This culture was grown at 37° C. until the optical density (600 nm) reached 0.4 (typically in 3-5 hours). Protein expression was induced by the addition of IPTG to a final concentration of 1 mM. Cells were grown for 12 hours at 37° C. Cells were harvested by centrifugation at 5,000×g for 20 minutes, and frozen at −80° C. until use (minimal time frozen was 24 hours).” for “sequencing.”

Assay [10] has as its system WP_068692787 enzyme (long chain fatty acid-CoA synthetase). The assay can be described thus: formation of the CoA moiety followed by pyrophosphate formation, Example 4. The class given is biochemical, Thermobifida halotolerans. Conditions: Example 4, FIG. 16; result in words.
Text: as §2, with “sequence.” for “sequence. A histine tag and a TEV protease cleavage sequence were added to the N-ter of each enzyme. This sequence was MHHHHHHENLYFQS to assist in purification (via an NTA-Ni column) and subsequent removal of the hexahistidine tag. Each recombinant enzyme began with an N-ter serine residue as TEV protease cleaves after the glutamine (Q). Each amino acid sequence was back translated to an E. coli codon optimized nucleic acid sequence and was synthesized using standard laboratory gene synthesis techniques. The insert was digested with Nde I and cloned into the similarly digested expression vector pET11d. Final DNA sequences were verified by DNA sequencing.”

Assay [11] has as its system WP_068689753 enzyme (long chain fatty acid-CoA synthetase). Description: formation of the CoA moiety followed by pyrophosphate formation, Example 3. It counts as biochemical, Thermobifida halotolerans. The note with it: Example 3, FIG. 13; sole substrate.
Text: as §2, with “sequence.” for “sequence. A histine tag and a TEV protease cleavage sequence were added to the N-ter of each enzyme. This sequence was MHHHHHHENLYFQS to assist in purification (via an NTA-Ni column) and subsequent removal of the hexahistidine tag. Each recombinant enzyme began with an N-ter serine residue as TEV protease cleaves after the glutamine (Q). Each amino acid sequence was back translated to an E. coli codon optimized nucleic acid sequence and was synthesized using standard laboratory gene synthesis techniques. The insert was digested with Nde I and cloned into the similarly digested expression vector pET11d. Final DNA sequences were verified by DNA sequencing.”

With `CCCCCCCC(=O)O` [C6, octanoic acid], the “suitability of the enzyme for the fatty acid (optimal / possible / not possible)” value in [1] is given as “not possible enzymes”; in assay [2], “not possible enzymes”; in [3] it was “optimal enzyme”; in assay [4], “not possible enzymes”; in assay [5], “much lower activity”. Moreover, the percent activity in [1] is recorded as 0.0%; in assay [2] it was 0.0%; in assay [3], 100%; in assay [4], 0.0%; in assay [5] it was 25.0%. In addition, in [6], the “time to completion of the long-chain fatty acid CoA ligase reaction” value (“time to completion” for short) was “complete within two hours”. Moreover, in assay [7], the “duration of linear formation of precipitating PHA after the lag” value (shortened to “duration”) was 100 min.

Consider `CCCCCCCCCC(=O)O` [C8], for which the percent activity turned out to be 0.0% in assay [1]; 0.0% in assay [2]; 100% in [3]; 0.0% in [4]; 70.7% in assay [5].

With `CCCCCCCCCCCCCC(=O)O` [C12, myristic acid], the “suitability of the enzyme for the fatty acid (optimal / possible / not possible)” value in assay [1] is recorded as “much lower activity”; in assay [2], “much lower activity”; in [3], “much lower activity”; in assay [4], “optimal enzymes”; in [5], “optimal enzymes”. Also, the percent activity in assay [1] is listed as 11.6%; in assay [2] it was 5.2%; in assay [3], 21.0%; in assay [4], 100%; in assay [5], 100%. The “time to completion” value in [8] and in assay [6] was “complete within two hours” each time. In addition, the “duration” value came to 150 min in [9] and 100 min in [7]. In addition, the “lag before measurable increase in optical density (650 nm)” value in assay [9] was “approximately 50 minutes”.

On to `CCCCCCCCCCCCCCCC(=O)O` [C14], for which the percent activity in assay [1] is listed as 30.4%; in assay [2], 21.1%; in assay [3], 0.0%; in assay [4] it was 100%; in assay [5], 100%.

With `CCCCCCCCCCCCCCCCCCCC(=O)O` [C18, arachidic acid], the percent activity in [1] is 100%; in [2], 100%; in assay [3] it was 0.0%; in assay [4] it was 5.6%; in assay [5], 100%. The “time to completion” value in assay [8] is recorded as “complete within two hours”. Moreover, the “duration” value in assay [9] was 150 min. Also, in [9], the “lag before measurable increase in optical density (650 nm)” value is “approximately 50 minutes”.

As to `CCCCCCCCCCCCCCCCCCCCCC(=O)O` [C20, behenic acid], the “suitability of the enzyme for the fatty acid (optimal / possible / not possible)” value in [1] is on record as “optimal enzymes”; in [2] it was “optimal enzymes”; in [3], “not possible enzymes”; in assay [4], “not possible enzymes”; in assay [5], “much lower activity”. The percent activity is 100% in [1]; 100% in assay [2]; 0.0% in [3]; 0.0% in [4]; 46.5% in assay [5]. Besides, the “time to completion” value in assay [6] is “complete within two hours”. In [7], the “duration” value worked out at 100 min.

As for `CCCCCCC(=O)O` [Heptanoic acid], the “conversion into the CoA moiety” value in [10] is recorded as “readily converted”.

As to `CCCCCCCCCCCCCCCCCCCCCCCCCC(=O)O` [hexacosanoic acid], in assay [11], the “completion of formation of the CoA moiety” value came to 240 min and the “lag period of formation of the CoA moiety” value came to 50 min.
